This is an account of results in patent EP4000618A1, “COMBINATION OF AT LEAST ONE INHIBITOR OF THE XC TRANSPORTER WITH AT LEAST ONE INHIBITOR OF MEMBRANE-BOUND CATALASE FOR INHIBITING AND / OR INACTIVATING TUMOR CELLS” (Motz, Manfred, priority 2020, dated 2022).

The test system of this assay is humanen Magenkarzinomzellen (MKN-45). Description: Apoptosis induction in MKN-45 tumour cells after catalase inhibition; percentage of cells with apoptosis features counted by phase-contrast microscopy. Type of assay: cell-based, human. As to conditions: for Effect on the consequence of the 3-AT pretreatment (no lag phase, independence from aquaporins): inhibitor present during 1 h pretreatment with 3-AT (Figur 3B). From the text:
Erfindungsgemäß wurden verschiedene Experimente mit humanen Magenkarzinomzellen (MKN-45) durchgeführt. Die experimentellen Einzelheiten der Versuche sind in der Literaturstelle Heinzelmann und Bauer, Biol. Chem. (2010) 391, S. 675-693 detailliert beschrieben. Auf die experimentelle Ausgestaltung wird hiermit ausdrücklich verwiesen.
In der Literaturstelle Heinzelmann und Bauer sind die Herkunft der jeweiligen Zellen, deren Anzuchtbedingungen, die Apoptoseinduktion und deren Messung beschrieben. Die membranständige Katalase wurde mit 3-Aminotriazol (3-AT) gehemmt. Spezifische Inhibitoren, die die Differenzierung zwischen dem reaktiven NO/Peroxynitritweg und dem HOCI-Weg erlauben, sind weiterhin in der Literaturstelle Heinzelmann und Bauer (a.a.o.) offenbart. Bei den einzelnen Auswertungen wurde die Apoptoseinduktion über die Quantifizierung des Prozentsatzes derjenigen Zellen bestimmt, die die Apoptosemerkmale Kernkondensation, Kernfragmentation und/oder Membrane-Blebbing aufwiesen. Die Quantifizierung erfolgte jeweils mit Hilfe eines Phasenkontrast-Umkehrmikroskops.

Setting [1] is: inhibitor added to 3-AT, whole 3-AT concentration range (Figur 1A, 1C).
Where [2] appears, read: inhibitor added to 3-AT, higher 3-AT concentration range (Figur 1A, 1B).

Each structure is given as a SMILES string. “Also recorded” adds a separate entry of the source. Where a name gives a salt, the structure may show the parent alone.

With `NCCc1ccc(S(=O)(=O)F)cc1` [AEBSF, 4-(2-Aminoethyl)benzenesulfonyl fluoride], the “Effect on the consequence of the 3-AT pretreatment (no lag phase, independence from aquaporins)” value is on record as “führt die Vorbehandlung nicht zu der unter A gezeigten Konsequenz”. For the same compound, the “Hemmung der Apoptoseinduktion” value under setting [1] is “gehemmt; also recorded: vollständigen Hemmung der Apoptose”.

Take `COc1cccc(C=NCCN=Cc2cccc(OC)c2[O-])c1[O-].[Cl-].[Mn+3]` [EUK-134]: the “Effect on the consequence of the 3-AT pretreatment (no lag phase, independence from aquaporins)” value is “führt die Vorbehandlung nicht zu der unter A gezeigten Konsequenz”. Also, the “Hemmung der Apoptoseinduktion” value under setting [2] was “nur in diesem Bereich zur Hemmung; also recorded: hemmt nur die durch höhere Konzentrationen an 3-AT induzierte Apoptose”.

For the compound `Cl.O=S(=O)([O-])c1ccc(-c2c3nc(c(-c4ccc(S(=O)(=O)O)cc4)c4ccc([nH]4)c(-c4ccc(S(=O)(=O)O)cc4)c4nc(c(-c5ccc(S(=O)(=O)O)cc5)c5ccc2[nH]5)C=C4)C=C3)cc1.[Fe]` [FeTPPS, 5-, 10-, 15-, 20-Tetrakis(4-sulfonatophenyl)porphyrinato iron(III) chloride], the “Hemmung der Apoptoseinduktion” value (cells not pretreated, range 3-6 nM 3-AT (Figur 6A)) is on record as “geringfügigen Anteil des NO/Peroxynitritwegs” and the “Hemmung der Apoptoseinduktion” value (inhibitor added to 3-AT, low 3-AT concentration range (Figur 1B)) is “zur Hemmung; also recorded: Hemmung der Apoptose im niedrigeren 3-AT Konzentrationsbereich”.

As to `COC(=O)[C@@H](N)CCCNC(=N)N[N+](=O)[O-]` [L-NAME, N-omega-nitro-L-arginine methylester hydrochloride], for the setting “inhibitor added to 3-AT, low 3-AT concentration range (Figur 1B), hydrochloride”, the “Hemmung der Apoptoseinduktion” value is “zur Hemmung; also recorded: Hemmung der Apoptose im niedrigeren 3-AT Konzentrationsbereich”.

As for `OC[C@@H](O)[C@@H](O)[C@H](O)[C@H](O)CO` [Mannitol], the “Hemmung der Apoptoseinduktion” value under setting [1] is given as “gehemmt; also recorded: Hemmung der Apoptoseinduktion”.

As to `[Ag+]` [Silberionen], the “Hemmung der Apoptoseinduktion” value is, setting by setting: (1 h preincubation with 100 mM 3-AT, wash, 3-AT again with Silberionen (Figur 3A)) “nicht mehr durch Silberionen zu hemmen”; (1 h preincubation without 3-AT, wash, then 3-AT with Silberionen (Figur 3A)) “daher durch Silberionen zu hemmen”; (Silberionen 5 µM added before 3-AT 100 mM (Figur 2A)) “blockiert die Apoptoseinduktion fast vollständig; also recorded: nur dann vollständig wirkt”; (Silberionen 5 µM added later, after 3-AT 100 mM (Figur 2A)) “wirken schwächer oder gar nicht”; (Silberionen 5 µM added to 3-AT concentration series (Figur 1D, 4A)) “hemmen die Apoptose vollständig; also recorded: durch Silberionen gehemmt; also recorded: blockieren die Apoptoseinduktion vollständig”.

For the compound `O=C(O)c1cc(/N=N/c2ccc(S(=O)(=O)Nc3ccccn3)cc2)ccc1O` [Sulfasalazin], the “Abhängigkeit der Apoptoseinduktion von der Aquaporinwirkung (Hemmbarkeit durch Silberionen)” value (14 h pretreatment with rising concentrations of Sulfasalazin, then 3-AT (Figur 4B-D)) was “ersetzt graduell die Wirkung der Aquaporine; also recorded: in steigendem Umfang von der Aktivität der Aquaporine unabhängig”. Moreover, the “Synergieeffekt mit 3-AT” value is on record as “bleibt dieser Synergieeffekt aus; also recorded: nicht ausreichend für die Induktion eines Synergieeffekts” (Sulfasalazin and 3-AT given at the same time (Figur 5B)); “konzentrationsabhängig zu einem Synergieeffekt; also recorded: Synergieeffekt zwischen 3-AT- und Sulfasalazinwirkung” (pretreatment of the cells with Sulfasalazin, then 3-AT (Figur 5A, 4A vs 4D)). The “Absenkung der 3-AT-Konzentration bei gleichbleibendem Effekt” value (after Sulfasalazin pretreatment (Figur 4)) is recorded as “ca. zehnfacher Absenkung”. In addition, where the note is “pretreatment with 100 µM Sulfasalazin, then 3-AT (Figur 4D)”, the “Abhängigkeit von der Aquaporinwirkung” value is listed as “vollständig aufgehoben”. In addition, the “Signalweg der Apoptoseinduktion beim Synergieeffekt” value (pretreatment with 100 µM Sulfasalazin, then 3-AT, profile with FeTPPS and Taurin (Figur 6B)) is “vollständig durch den NO/Peroxynitritweg bedingt; also recorded: lediglich zu einer Verstärkung des NO/Peroxynitritwegs geführt”.

`NCCS(=O)(=O)O` [Taurin]: the “Hemmung der Apoptoseinduktion” value is reported as “sofortigen Abbruch der Apoptoseinduktion; also recorded: erfolgreichen und sofortigen Hemmung der Apoptoseinduktion” (Taurin added two hours after 3-AT (Figur 2B)) and “im höheren Konzentrationsbereich; also recorded: spezifisch Apoptose hemmen, die durch höhere Konzentrationen an 3-AT induziert wurde” under setting [2]. In addition, for the setting “cells not pretreated, range 0.7 und 6 mM 3-AT (Figur 6A)”, the “Steigerung der Apoptose” value is reported as “Steigerung der Apoptose”.
